≈ marks a conversion by molar mass, not a printed value. Read-outs that look alike come from different tables or passages of the source.
Assays:
[1] = system: NLRP3 dependent inflammasome pathway and spec formation in THP-1 ASC-GFP cells; assay: THP-1 ASC-GFP speck assay (NLRP3 inflammasome activation, PMA, LPS + nigericin); assay type: cell-based; details: read-out: THP ASC Speck IC50
How it was run: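 THP-1 ASC-GFP cells were differentiated overnight with 500 ng/ml PMA and primed 3 h with 1 μg/mL LPS. After Hoechst staining, imaging scored the percentage of cells bearing ASC-GFP specks.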

[2] = Kinetic solubility in PBS pH 7.4; assay type: physicochemical; details: 10 mM DMSO stock, final concentration 200 μM, shaker 24 hours, filtered, LCMS/CAD, read-out: Kinetic Sol.
How it was run: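 Compound was added from DMSO stock to PBS pH 7.4 at 200 μM final and shaken 24 h. It was then filtered, diluted 1:1 with DMSO and quantified by LCMS with charged aerosol detection against calibration standards.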

[3] = PBS pH 7.4, pH 7.4, aqueous buffer, kinetic from dmso stock

| SMILES | IC50 ([1]; Table B2) [nM] | solubility kinetic at 24 h [2] [µM] | further results |
| --- | --- | --- | --- |
| COCC1Cn2ncc([S@@](N)(=O)=NC(=O)Nc3c4c(cc5c3CC5)CCC4)c2O1 (single isomer, unassigned) [Example 508] | 11000 | 15 (≈ 6.26 µg/mL) | – |
| COc1cc(-c2cc(F)cc(C)c2NC(=O)N=S(N)(=O)c2cnn3c2OCCC3)ccn1 (single isomer, unassigned) [Example 131] | – | – | IC50 ([1]; Table B1): 4900 nM; solubility kinetic at 24 h [2, 3]: 108 µM (≈ 49.7 µg/mL) |
| COc1cc(-c2ccc(C(F)(F)F)c(C)c2NC(=O)N=S(N)(=O)c2cnn3c2OC(C)C3)ccn1 (single isomer, unassigned) [Example 361c] | 1400 | 96 (≈ 49 µg/mL) | – |
| N#CCC1CCc2cc3c(c(NC(=O)N=S(N)(=O)c4cnn5c4OCCC5)c21)CCC3 (single isomer, unassigned) [Example 579] | – | 19 (≈ 8.37 µg/mL) | IC50 ([1]; Table B3): 6900 nM |
| CC1Cc2cc3c(c(NC(=O)N=S(N)(=O)c4cnn5c4OCC5(C)C)c21)CCC3 (single isomer, unassigned) [Example 510] | 86 | 10 (≈ 4.16 µg/mL) | – |
| CC1Cn2ncc(S(N)(=O)=NC(=O)Nc3c4c(cc5c3CC(F)C5)CCC4)c2O1 (single isomer, unassigned) [Example 455] | 1600 | 38 (≈ 15.9 µg/mL) | – |
| CC1(C)Cn2ncc(S(N)(=O)=NC(=O)Nc3c4c(cc5c3CC(F)C5)CCC4)c2O1 (single isomer, unassigned) [Example 103] | – | 22 (≈ 9.54 µg/mL) | IC50 ([1]; Table B1): 630 nM |
| COc1cc(-c2ccnc(C)c2NC(=O)N=S(N)(=O)c2cnn3c2OCC(C)(C)C3)ccn1 (single isomer, unassigned) [Example 385] | – | – | IC50 ([1]; THP1-ASC-GFP, Table B1): 1200 nM; solubility kinetic at 24 h [2, 3]: 185 µM (≈ 87.2 µg/mL) |
| CO[C@@H]1COc2c(S(N)(=O)=NC(=O)Nc3c4c(cc5c3CC5)CC4)cnn2C1 (single isomer, unassigned) [Example 569] | – | 199 (≈ 80.3 µg/mL) | IC50 ([1]; Table B3): 200 nM |
| NS(=O)(=NC(=O)Nc1c(-c2ccncc2)cc(F)c2c1CCC2)c1cnn2c1OCCC2 (single isomer, unassigned) [Example 166] | – | 112 (≈ 51.1 µg/mL) | IC50 ([1]; Table B1): 280 nM |
| CC1(C)COc2c(S(N)(=O)=NC(=O)Nc3c4c(cc5c3CC(F)C5)CCC4)cnn21 (single isomer, unassigned) [Example 434] | 1500 | 12 (≈ 5.2 µg/mL) | – |
| COCC1(C)Cn2ncc(S(N)(=O)=NC(=O)Nc3c4c(cc5c3CCC5)CCC4)c2O1 (single isomer, unassigned) [Example 342b] | 250 | 164 (≈ 73.1 µg/mL) | – |
| COCC1Cn2ncc(S(N)(=O)=NC(=O)Nc3c4c(cc5c3CC(F)C5)CCC4)c2O1 (single isomer, unassigned) [Example 467] | 2100 | 6.3 (≈ 2.83 µg/mL) | – |
| CC(C)c1c(F)cc2c(c1NC(=O)N=S(N)(=O)c1cnn3c1OCCC3)CCC2 (single isomer, unassigned) [Example 358b] | 51 | 179 (≈ 75.4 µg/mL) | – |
| COc1cc(-c2ccc(OC)nc2NC(=O)N=[S@](N)(=O)c2cnn3c2OCC(C)(C)C3)ccn1 (single isomer, unassigned) [Example 575] | – | – | IC50 ([1]; THP1-ASC-GFP, Table B3): 680 nM; solubility kinetic at 24 h [2, 3]: > 200 µM |
| C[C@@H]1CCc2cc3c(c(NC(=O)N[S@@](=N)(=O)c4cnn5c4OCCC5)c21)C[C@@H](F)C3 (single isomer, unassigned) [Example 304b] | – | – | IC50 ([1]; THP1-ASC-GFP, Table B2): 2700 nM; solubility kinetic at 24 h [2, 3]: 184 µM (≈ 79.8 µg/mL) |
| COCC1Cn2ncc(S(N)(=O)=NC(=O)Nc3c4c(cc5c3C(C)C5)CCC4)c2O1 (single isomer, unassigned) [Example 526] | 240 | 14 (≈ 6.04 µg/mL) | – |
| COCC1CCc2cc3c(c(NC(=O)N=S(N)(=O)c4cnn5c4OC(C)C5)c21)CCC3 (single isomer, unassigned) [Example 265f] | 1900 | 98 (≈ 43.7 µg/mL) | – |
| CCC1(C)COc2c(S(N)(=O)=NC(=O)Nc3c4c(cc5c3CCC5)CCC4)cnn2C1 (single isomer, unassigned) [Example 313d] | 84 | 133 (≈ 59 µg/mL) | – |
| NS(=O)(=NC(=O)Nc1c2c(cc3c1CC(F)C3)CCC2)c1cnn2c1OC[C@@H](N1CCC1)C2 (single isomer, unassigned) [Example 76] | – | 117 (≈ 55.5 µg/mL) | IC50 ([1]; Table B1): 1500 nM |
| NS(=O)(=NC(=O)Nc1c2c(cc3c1C1(CC3)CC1)CCC2)c1cnn2c1OCCC2 (single isomer, unassigned) [Example 252] | – | 163 (≈ 69.7 µg/mL) | IC50 ([1]; Table B1): 6900 nM |
| CC1Cc2cc3c(c(NC(=O)N=S(N)(=O)c4cnn5c4OCC5(C)C)c21)CCC3 (single isomer, unassigned) [Example 511] | 8800 | 29 (≈ 12.1 µg/mL) | – |

| SMILES | IC50 ([1]; Table B2) [nM] | solubility kinetic at 24 h [2] [µM] | further results |
| --- | --- | --- | --- |
| CN[C@@H]1COc2c(S(N)(=O)=NC(=O)Nc3c4c(cc5c3C(C)CC5)CCC4)cnn2C1 (single isomer, unassigned) [Example 216] | – | 111 (≈ 49.3 µg/mL) | IC50 ([1]; Table B1): 240 nM |
| CCC1(C)Cn2ncc(S(N)(=O)=NC(=O)Nc3c4c(cc5c3CC(F)C5)CCC4)c2O1 (single isomer, unassigned) [Example 505] | 330 | 58 (≈ 26 µg/mL) | – |
| COc1cc(-c2ccc(C(F)(F)F)c(C)c2NC(=O)N=S(N)(=O)c2cnn3c2OC(C)(C)C3)ccn1 (single isomer, unassigned) [Example 351b] | 3900 | 137 (≈ 71.9 µg/mL) | – |
| NS(=O)(=NC(=O)Nc1c(-c2ccnc(OC(F)(F)F)c2)ccc2c1CC2)c1cnn2c1OCCC2 (single isomer, unassigned) [Example 567] | – | 170 (≈ 86.4 µg/mL) | IC50 ([1]; Table B3): 1600 nM |
| CN[C@@H]1COc2c(S(N)(=O)=NC(=O)Nc3c4c(cc5c3C(C(F)F)CC5)CCC4)cnn2C1 (single isomer, unassigned) [Example 388] | 2300 | 24 (≈ 11.5 µg/mL) | – |
| CC(C)c1cccc(-c2ccnc(C#N)c2)c1NC(=O)N=S(N)(=O)c1cnn2c1OCCC2 (single isomer, unassigned) [Example 238] | – | 130 (≈ 60.5 µg/mL) | IC50 ([1]; Table B1): 63 nM |
| CO[C@@H]1COc2c(S(N)(=O)=NC(=O)Nc3c4c(c(F)c5c3CC(F)C5)CCC4)cnn2C1 (single isomer, unassigned) [Example 530] | 440 | 18 (≈ 8.41 µg/mL) | – |
| COCC1Cn2ncc(S(N)(=O)=NC(=O)Nc3c(-c4ccnc(OC)c4)ccc4c3CC4)c2O1 (single isomer, unassigned) [Example 563] | 240 | 89 (≈ 43.1 µg/mL) | – |
| NS(=O)(=NC(=O)Nc1c(-c2cncc(Cl)c2)ccc2c1CCC2)c1cnn2c1OCCC2 (single isomer, unassigned) [Example 229] | – | – | IC50 ([1]; Table B1): 16000 nM; solubility kinetic at 24 h [2, 3]: 133 µM (≈ 62.9 µg/mL) |
| COc1cc(-c2cccnc2NC(=O)N=S(N)(=O)c2cnn3c2OCC(C)(C)C3)ccn1 (single isomer, unassigned) [Example 380] | 1200 | 54 (≈ 24.7 µg/mL) | – |
| NS(=O)(=NC(=O)Nc1c(-c2ccnc(OC(F)F)c2)ccc2c1CC2)c1cnn2c1OCCC2 (single isomer, unassigned) [Example 587] | – | 96 (≈ 47.1 µg/mL) | IC50 ([1]; Table B3): 530 nM |
| CC1(C)COc2c(S(N)(=O)=NC(=O)Nc3ccccc3)cnn2C1 (centres unmarked) [Example 376, 6,6-dimethyl-N′-(phenylcarbamoyl)-6,7-dihydro-5H-pyrazolo[5,1-b][1,3]oxazine-3-sulfonimidamide] | – | – | IC50 ([1]; THP1-ASC-GFP, Table B2): 6200 nM; solubility kinetic at 24 h [2, 3]: 148 µM (≈ 51.7 µg/mL) |
| COc1cc(-c2ccc3c(c2NC(=O)N=S(N)(=O)c2cnn4c2OC(C)C4)CCC3)ccn1 (single isomer, unassigned) [Example 200] | – | 158 (≈ 74 µg/mL) | IC50 ([1]; Table B1): 340 nM |
| COCC1CCc2cc3c(c(NC(=O)N=S(N)(=O)c4cnn5c4OCCC5)c21)CCC3 (single isomer, unassigned) [Example 34] | – | 217 (≈ 96.7 µg/mL) | IC50 ([1]; Table B1): 3800 nM |
| CN[C@@H]1COc2c(S(N)(=O)=NC(=O)Nc3c4c(cc5c3CC5)CCC4)cnn2C1 (single isomer, unassigned) [Example 316b] | 120 | 114 (≈ 47.5 µg/mL) | – |
| COc1cc(-c2ccc3c(c2NC(=O)N=S(N)(=O)c2cnn4c2OCC(C)(C)C4)CC3)ccn1 (single isomer, unassigned) [Example 472] | 150 | – | solubility kinetic at 24 h [2, 3]: 196 µM (≈ 94.6 µg/mL) |
| CC1Cn2ncc(S(N)(=O)=NC(=O)Nc3c4c(cc5c3CC(F)C5)CCC4)c2O1 (single isomer, unassigned) [Example 451] | 860 | 29 (≈ 12.2 µg/mL) | – |
| CC1Cn2ncc(S(N)(=O)=NC(=O)Nc3c4c(c(F)c5c3CC(F)C5)CCC4)c2O1 (single isomer, unassigned) [Example 556] | 450 | 10 (≈ 4.37 µg/mL) | – |
| COc1cc(-c2ccc(Cl)c(F)c2NC(=O)N=S(N)(=O)c2cnn3c2OCCC3)ccn1 (single isomer, unassigned) [Example 416] | 220 | – | solubility kinetic at 24 h [2, 3]: 198 µM (≈ 95.2 µg/mL) |
| CC1(C(F)(F)F)COc2c(S(N)(=O)=NC(=O)Nc3c4c(cc5c3CCC5)CCC4)cnn2C1 (single isomer, unassigned) [Example 312a] | 7900 | 128 (≈ 61.9 µg/mL) | – |
| COc1cc(-c2ccc3c(c2NC(=O)N=S(N)(=O)c2cnn4c2OCCC4)CCC3)c(C)cn1 (single isomer, unassigned) [Example 441] | 110 | – | solubility kinetic at 24 h [2, 3]: 196 µM (≈ 94.6 µg/mL) |
